Results taken from US20060030616A1, “Anhydride modified cantharidin analogues useful in the treatment of cancer” (priority 1998, published 2006).

Legend:
L1210 cells = test: Checkpoint abrogation after 6 Gy radiation, flow cytometry; format: cell-based, murine; conditions: 12 h after drug
Method: (§1) The cells are fixed in 70% ethanol and stored at −20° C. until analysis is performed (1-2 weeks). After fixing, the cells are pelleted and incubated in PBS containing propidium iodide ([…]) and RNase A (200 mg/ml) for at least 30 min at room temperature. The samples (2×10^4 events) are analysed using a Becton Dickson FACScan, fluorescence is collected in fluorescence detector 2 (FL2), filter 575/30 nm band pass. Cell cycle distribution is assessed using Cell Quest software (Becton Dickson).
(§2) The ability of the protein phosphatase inhibitors to abrogate the G1 or G2 checkpoint of the cell cycle may be determined by cell cycle analysis using flow cytometry. Briefly, asynchronous cell cultures are harvested 18 h after 6 Gy irradiation and/or 12 h incubation with the protein phosphatase inhibitor. Depending upon the p53 status of the cell line, radiation treatment alone will induce arrest in either G1 and/or G2 phase of the cell cycle.
(§3) If the protein phosphatase inhibitor abrogates the G2 checkpoint then the cells will not arrest in the G2 phase of the cell cycle and the cells will continue through the cell cycle and accumulate in the G1 phase of the cell cycle only. Similarily if the protein phosphatase inhibitors abrogates the G1 checkpoint then the cells will not arrest in the G1 phase of the cell cycle and accumulate in the G2 phase of the cell cycle only. Cell cycle analysis using propidium iodide labelling of DNA has been used extensively in our laboratory to assess the effect of specific anticancer agents that induce S-phase cell cycle arrest and apoptotic cell death (Sakoff, Ackland and Stewart, 1998). Experiments were performed on a Becton Dickinson FACScan and using Cell Quest software.
(§4) The cells were treated with 6 Gy of radiation and then treated with cantharidin 6 h later. The ability to abrogate cell cycle arrest was assessed is 12 h after the addition of the drugs.

HT29 cells = test: as above; format: cell-based, human; conditions: 12 h after drug
Method: as §1, §2, §3, §4

HL60 cells = test: as above; format: cell-based, human; conditions: 12 h after drug
Method: as §1, §2, §3, §4

HCT116 cells = test: as above; format: cell-based, human; conditions: 12 h after drug
Method: as §1, §2, §3, §4

nine cancer cell lines = test: MTT cytotoxicity assay, 72 h, ranges over cell line panel; format: cell-based; conditions: nine cell lines, read-out: IC50 range across all cell lines tested
Method: Cells in a subconfluent phase are transferred to 96-well microtitre plates. L1210 cells are plated at a density of 1000 cells/well in 100 μl medium, while all other cell lines are plated at a density of 2000-25000 cells/well. The cells are left for 24 h prior to treatment to ensure exponential growth has been achieved, 24 h after plating (day 0), 100 μl of phosphatase inhibitor is added to each well, control wells received 100 μl of medium only. Drug exposure time is 72 h (day 3). The effect of phosphatase inhibition is tested in triplicate over a concentration range of […]−1×10^−8 M. Growth inhibitory effects are evaluated using the MTT assay and absorbance read at […]. The IC50 is the drug concentration at which cell growth is 50% inhibited based on the difference of optical density on day 0 and day 3 of drug exposure. Cytotoxicity is evaluated using a spectrophotometric assay which determines the percentage of cell growth following exposure of the cells to various concentrations of the phosphatase inhibitors for a period of 72 hours. The subsequent dose response curve is used to calculate IC50 values (the drug concentration at which cell growth is 50% inhibited).
Anti-cancer screening of the protein phosphatase inhibitors is assessed using the MTT assay. This assay determines cell viability by the ability of mitochondrial dehydrogenase to produce formazan crystals from 3-(4,5-dimethylthiazol-2-yl)-2,5-diphenyltetrazolium bromide. The viable cell number/well is directly proportional to the production of formazan, which following solubilization, can be measured spectrophotometrically (540 nm). This technique is also used by the National Cancer Institute to screen for new anticancer agents.
As described herein a number of cantharidin analogues have been synthesised and tested for their anticancer activity in nine cancer cell lines using the MTT assay after 72 h exposure. These new analogues are shown in FIG. 2 and have been designated MK-1 through to MK-9.

C[C@@]12C(=O)OC(=O)[C@]1(C)[C@H]1CC[C@@H]2O1 [Cantharidin, exo.exo-2.3-dimethyl-7-oxobicyclo[2.2.1]heptane-2,3-dicarboxylic acid anhydride]
Cell Cycle Distribution, G1 (L1210 cells; L1210, 1 μM, 18 h after 6Gy): 27.2 percentage of total | Cell Cycle Distribution, G2 + M (L1210 cells; L1210, 1 μM, 18 h after 6Gy): 37.5 percentage of total | Cell Cycle Distribution, S (L1210 cells; L1210, 1 μM, 18 h after 6Gy): 25.6 percentage of total | Cell Cycle Distribution, sub G1 (L1210 cells; L1210, 1 μM, 18 h after 6Gy): 1.6 percentage of total | Cell Cycle Distribution, G1 (L1210 cells; L1210, 5 μM, 18 h after 6Gy): 25.8 percentage of total | Cell Cycle Distribution, G2 + M (L1210 cells; L1210, 5 μM, 18 h after 6Gy): 41.5 percentage of total | Cell Cycle Distribution, S (L1210 cells; L1210, 5 μM, 18 h after 6Gy): 31.9 percentage of total | Cell Cycle Distribution, sub G1 (L1210 cells; L1210, 5 μM, 18 h after 6Gy): 2.4 percentage of total | Cell Cycle Distribution, G1 (L1210 cells; L1210, 10 μM, 18 h after 6Gy): 24.9 percentage of total | Cell Cycle Distribution, G2 + M (L1210 cells; L1210, 10 μM, 18 h after 6Gy): 43.7 percentage of total | Cell Cycle Distribution, S (L1210 cells; L1210, 10 μM, 18 h after 6Gy): 29.4 percentage of total | Cell Cycle Distribution, sub G1 (L1210 cells; L1210, 10 μM, 18 h after 6Gy): 3.4 percentage of total | Cell Cycle Distribution, G1 (L1210 cells; L1210, 50 μM, 18 h after 6Gy): 4.1 percentage of total | Cell Cycle Distribution, G2 + M (L1210 cells; L1210, 50 μM, 18 h after 6Gy): 77.4 percentage of total | Cell Cycle Distribution, S (L1210 cells; L1210, 50 μM, 18 h after 6Gy): 15.6 percentage of total | Cell Cycle Distribution, sub G1 (L1210 cells; L1210, 50 μM, 18 h after 6Gy): 4.9 percentage of total | Checkpoint remark (L1210 cells; L1210, 50 μM, 18 h after 6Gy): G1 abrogation | Checkpoint abrogation (L1210 cells; L1210, 6 Gy): abrogated radiation induced G1 arrest | Cell Cycle Distribution, G1 (HT29 cells; HT29, 1 μM, 18 h after 6Gy): 35.2 percentage of total | Cell Cycle Distribution, G2 + M (HT29 cells; HT29, 1 μM, 18 h after 6Gy): 38.2 percentage of total | Cell Cycle Distribution, S (HT29 cells; HT29, 1 μM, 18 h after 6Gy): 10.6 percentage of total | Cell Cycle Distribution, sub G (HT29 cells; HT29, 1 μM, 18 h after 6Gy): 16.6 percentage of total | Cell Cycle Distribution, G1 (HT29 cells; HT29, 5 μM, 18 h after 6Gy): 38.6 percentage of total | Cell Cycle Distribution, G2 + M (HT29 cells; HT29, 5 μM, 18 h after 6Gy): 46.3 percentage of total | Cell Cycle Distribution, S (HT29 cells; HT29, 5 μM, 18 h after 6Gy): 10.6 percentage of total | Cell Cycle Distribution, sub G (HT29 cells; HT29, 5 μM, 18 h after 6Gy): 5.3 percentage of total | Cell Cycle Distribution, G1 (HT29 cells; HT29, 10 μM, 18 h after 6Gy): 21.1 percentage of total | Cell Cycle Distribution, G2 + M (HT29 cells; HT29, 10 μM, 18 h after 6Gy): 60.8 percentage of total | Cell Cycle Distribution, S (HT29 cells; HT29, 10 μM, 18 h after 6Gy): 12.3 percentage of total | Cell Cycle Distribution, sub G (HT29 cells; HT29, 10 μM, 18 h after 6Gy): 6.4 percentage of total | Cell Cycle Distribution, G1 (HT29 cells; HT29, 50 μM, 18 h after 6Gy): 23.0 percentage of total | Cell Cycle Distribution, G2 + M (HT29 cells; HT29, 50 μM, 18 h after 6Gy): 43.1 percentage of total | Cell Cycle Distribution, S (HT29 cells; HT29, 50 μM, 18 h after 6Gy): 20.7 percentage of total | Cell Cycle Distribution, sub G (HT29 cells; HT29, 50 μM, 18 h after 6Gy): 14.7 percentage of total | Checkpoint remark (HT29 cells; HT29, 50 μM, 18 h after 6Gy): G1 abrogation | Checkpoint abrogation (HT29 cells; HT29, 6 Gy): abrogated radiation induced G1 arrest | Cell Cycle Distribution, G1 (HL60 cells; HL60, 1 μM, 18 h after 6Gy): 5.2 percentage of total | Cell Cycle Distribution, G2 + M (HL60 cells; HL60, 1 μM, 18 h after 6Gy): 85.8 percentage of total | Cell Cycle Distribution, S (HL60 cells; HL60, 1 μM, 18 h after 6Gy): 3.0 percentage of total | Cell Cycle Distribution, sub G (HL60 cells; HL60, 1 μM, 18 h after 6Gy): 6.2 percentage of total | Cell Cycle Distribution, G1 (HL60 cells; HL60, 5 μM, 18 h after 6Gy): 5.7 percentage of total | Cell Cycle Distribution, G2 + M (HL60 cells; HL60, 5 μM, 18 h after 6Gy): 86.8 percentage of total | Cell Cycle Distribution, S (HL60 cells; HL60, 5 μM, 18 h after 6Gy): 3.5 percentage of total | Cell Cycle Distribution, sub G (HL60 cells; HL60, 5 μM, 18 h after 6Gy): 4.4 percentage of total | Cell Cycle Distribution, G1 (HL60 cells; HL60, 10 μM, 18 h after 6Gy): 5.6 percentage of total | Cell Cycle Distribution, G2 + M (HL60 cells; HL60, 10 μM, 18 h after 6Gy): 85.1 percentage of total | Cell Cycle Distribution, S (HL60 cells; HL60, 10 μM, 18 h after 6Gy): 4.3 percentage of total | Cell Cycle Distribution, sub G (HL60 cells; HL60, 10 μM, 18 h after 6Gy): 5.3 percentage of total | Cell Cycle Distribution, G1 (HL60 cells; HL60, 50 μM, 18 h after 6Gy): 10.2 percentage of total | Cell Cycle Distribution, G2 + M (HL60 cells; HL60, 50 μM, 18 h after 6Gy): 64.9 percentage of total | Cell Cycle Distribution, S (HL60 cells; HL60, 50 μM, 18 h after 6Gy): 11.3 percentage of total | Cell Cycle Distribution, sub G (HL60 cells; HL60, 50 μM, 18 h after 6Gy): 14.3 percentage of total | Checkpoint remark (HL60 cells; HL60, 50 μM, 18 h after 6Gy): Cell Death | Checkpoint abrogation (HL60 cells; HL60, 6 Gy): abrogated radiation induced G1 arrest | Cell Cycle Distribution, G1 (HCT116 cells; HCT116, 1 μM, 18 h after 6Gy): 26.1 percentage of total | Cell Cycle Distribution, G2 + M (HCT116 cells; HCT116, 1 μM, 18 h after 6Gy): 58.2 percentage of total | Cell Cycle Distribution, S (HCT116 cells; HCT116, 1 μM, 18 h after 6Gy): 13.8 percentage of total | Cell Cycle Distribution, sub G (HCT116 cells; HCT116, 1 μM, 18 h after 6Gy): 4.2 percentage of total | Cell Cycle Distribution, G1 (HCT116 cells; HCT116, 5 μM, 18 h after 6Gy): 23.6 percentage of total | Cell Cycle Distribution, G2 + M (HCT116 cells; HCT116, 5 μM, 18 h after 6Gy): 63.3 percentage of total | Cell Cycle Distribution, S (HCT116 cells; HCT116, 5 μM, 18 h after 6Gy): 10.4 percentage of total | Cell Cycle Distribution, sub G (HCT116 cells; HCT116, 5 μM, 18 h after 6Gy): 4.0 percentage of total | Cell Cycle Distribution, G1 (HCT116 cells; HCT116, 10 μM, 18 h after 6Gy): 25.7 percentage of total | Cell Cycle Distribution, G2 + M (HCT116 cells; HCT116, 10 μM, 18 h after 6Gy): 62.2 percentage of total | Cell Cycle Distribution, S (HCT116 cells; HCT116, 10 μM, 18 h after 6Gy): 9.4 percentage of total | Cell Cycle Distribution, sub G (HCT116 cells; HCT116, 10 μM, 18 h after 6Gy): 4.2 percentage of total | Cell Cycle Distribution, G1 (HCT116 cells; HCT116, 50 μM, 18 h after 6Gy): 12.2 percentage of total | Cell Cycle Distribution, G2 + M (HCT116 cells; HCT116, 50 μM, 18 h after 6Gy): 63.3 percentage of total | Cell Cycle Distribution, S (HCT116 cells; HCT116, 50 μM, 18 h after 6Gy): 15.6 percentage of total | Cell Cycle Distribution, sub G (HCT116 cells; HCT116, 50 μM, 18 h after 6Gy): 12.0 percentage of total | Checkpoint remark (HCT116 cells; HCT116, 50 μM, 18 h after 6Gy): G1 abrogation | Checkpoint abrogation (HCT116 cells; HCT116, 6 Gy): abrogated radiation induced G1 arrest | IC50 (nine cancer cell lines): 6.1 to 18 µM
